Measured values reported in the supplement of paper PMC10307832.

Key:
Test in all cases: relative viability (nuclei count vs DMSO), 5 days (fraction); higher = more cells survive
NCI-H838 = system: NCI-H838
How it was run: (§1)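 Five library-drug doses in √10 steps were combined with a fixed anchor-drug dose, or a single drug was given alone, by pin tool to lung cancer cell lines in 1536-well plates the day after seeding. Nuclei were stained and counted after 5 days. Relative viability is the nuclei count in treated wells over that in vehicle wells, taken as the median of duplicate plates.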

NCI-H2087 = system: NCI-H2087
How it was run: as §1

NCI-H1651 = system: NCI-H1651
How it was run: as §1

EPLC-272H = system: EPLC-272H
How it was run: as §1

EMC-BAC-2 = system: EMC-BAC-2
How it was run: as §1

NCI-H520 = system: NCI-H520
How it was run: as §1

LU99A = system: LU99A
How it was run: as §1

COR-L23 = system: COR-L23
How it was run: as §1

NCI-H2085 = system: NCI-H2085
How it was run: as §1

HCC-827 = system: HCC-827
How it was run: as §1

NCI-H1563 = system: NCI-H1563
How it was run: as §1

SMILES: O=c1cc(-c2cccc3c2Sc2ccccc2S3)oc(N2CCOCC2)c1 + Nc1nc2[nH]cc(CCc3ccc(C(=O)N[C@@H](CCC(=O)O)C(=O)O)cc3)c2c(=O)[nH]1 [Pemetrexed] (partner 0.2 µM)
- relative viability (NCI-H838; first compound 0.08 µM): 0.266
- relative viability (NCI-H838; first compound 0.253 µM): 0.245
- relative viability (NCI-H838; first compound 0.8 µM): 0.249
- relative viability (NCI-H838; first compound 2.53 µM): 0.226
- relative viability (NCI-H838; first compound 8 µM): 0.226
- relative viability (NCI-H2087; first compound 0.08 µM): 0.669
- relative viability (NCI-H2087; first compound 0.253 µM): 0.662
- relative viability (NCI-H2087; first compound 0.8 µM): 0.726
- relative viability (NCI-H2087; first compound 2.53 µM): 0.649
- relative viability (NCI-H2087; first compound 8 µM): 0.674
- relative viability (NCI-H1651; first compound 0.08 µM): 0.563
- relative viability (NCI-H1651; first compound 0.253 µM): 0.636
- relative viability (NCI-H1651; first compound 0.8 µM): 0.604
- relative viability (NCI-H1651; first compound 2.53 µM): 0.589
- relative viability (NCI-H1651; first compound 8 µM): 0.603
- relative viability (EPLC-272H; first compound 0.08 µM): 0.296
- relative viability (EPLC-272H; first compound 0.253 µM): 0.224
- relative viability (EPLC-272H; first compound 0.8 µM): 0.333
- relative viability (EPLC-272H; first compound 2.53 µM): 0.304
- relative viability (EPLC-272H; first compound 8 µM): 0.197
- relative viability (EMC-BAC-2; first compound 0.08 µM): 0.396
- relative viability (EMC-BAC-2; first compound 0.253 µM): 0.473
- relative viability (EMC-BAC-2; first compound 0.8 µM): 0.442
- relative viability (EMC-BAC-2; first compound 2.53 µM): 0.429
- relative viability (EMC-BAC-2; first compound 8 µM): 0.463
- relative viability (NCI-H520; first compound 0.08 µM): 0.634
- relative viability (NCI-H520; first compound 0.253 µM): 0.835
- relative viability (NCI-H520; first compound 0.8 µM): 0.739
- relative viability (NCI-H520; first compound 2.53 µM): 0.717
- relative viability (NCI-H520; first compound 8 µM): 0.69
- relative viability (LU99A; first compound 0.08 µM): 0.201
- relative viability (LU99A; first compound 0.253 µM): 0.169
- relative viability (LU99A; first compound 0.8 µM): 0.184
- relative viability (LU99A; first compound 2.53 µM): 0.324
- relative viability (LU99A; first compound 8 µM): 0.187
- relative viability (COR-L23; first compound 0.08 µM): 0.194
- relative viability (COR-L23; first compound 0.253 µM): 0.215
- relative viability (COR-L23; first compound 0.8 µM): 0.215
- relative viability (COR-L23; first compound 2.53 µM): 0.195
- relative viability (COR-L23; first compound 8 µM): 0.197
- relative viability (NCI-H2085; first compound 0.08 µM): 0.828
- relative viability (NCI-H2085; first compound 0.253 µM): 0.962
- relative viability (NCI-H2085; first compound 0.8 µM): 0.934
- relative viability (NCI-H2085; first compound 2.53 µM): 0.757
- relative viability (NCI-H2085; first compound 8 µM): 0.773
- relative viability (HCC-827; first compound 0.08 µM): 0.231
- relative viability (HCC-827; first compound 0.253 µM): 0.272
- relative viability (HCC-827; first compound 0.8 µM): 0.244
- relative viability (HCC-827; first compound 2.53 µM): 0.264
- relative viability (HCC-827; first compound 8 µM): 0.228
- relative viability (NCI-H1563; first compound 0.08 µM): 0.695
- relative viability (NCI-H1563; first compound 0.253 µM): 0.741
- relative viability (NCI-H1563; first compound 0.8 µM): 0.744
- relative viability (NCI-H1563; first compound 2.53 µM): 0.684
- relative viability (NCI-H1563; first compound 8 µM): 0.787
